Here are results for 4 compounds from EP0183174A2, “Substituted phenoxy urea, processes for its preparation and herbicide containing it as active ingredient” (KUMIAI CHEMICAL INDUSTRY CO., LTD., priority 1984, dated 1986).

For one series, the system named is crabgrass. Description: Test Example 3: herbicidal test by upland soil treatment. Also noted: key: 5: Withered; 4.5: Herbicidal effect (or phytotoxicity) in a range of 90 to 99%; 4: Herbicidal effect (or phytotoxicity) in a range of 80 to 89%; 3.5: Herbicidal effect (or phytotoxicity) in a range of 70 to 79%; 3: Herbicidal effect (or phytotoxicity) in a range of 60 to 69%; 2.5: Herbicidal effect (or phytotoxicity) in a range of 50 to 59%; 2: Herbicidal effect (or phytotoxicity) in a range of 40 to 49%; 1.5: Herbicidal effect (or phytotoxicity) in a range of 30 to 39%; 1: Herbicidal effect (or phytotoxicity) in a range of 20 to 29%; 0.5: Herbicidal effect (or phytotoxicity) in a range of 1 to 19%; 0: No herbicidal effect (or no phytotoxicity). As to conditions: evaluated twenty days after application. Format: in vivo, Digitaria sanquinalis L. The source says: (§1) Into each plastic pot of 600 cm^2, upland soil was filled, then seeds of barnyardgrass, crabgrass, green foxtail, redroot pigweed, rice flatsedge, rice, wheat, maize, soybean, cotton and sugar beet were sown, and they were covered with soil. A predetermined amount of the wettable powder prepared from the test compound in accordance with Formulation Example 3 and diluted with water, was uniformly applied to the surface of the soil at an application rate of 1000 liter/hectare by means of a small size spray. They were grown in a greenhouse, and twenty days after the application, the herbicidal effects and phytotoxicity were evaluated in accordance with the standards as identified in Table 5.

A further series deals with wheat. Nature of the series: Test Example 3: herbicidal test by upland soil treatment (phytotoxicity). In kind it is in vivo. Also on record: key: 5: Withered; 4.5: Herbicidal effect (or phytotoxicity) in a range of 90 to 99%; 4: Herbicidal effect (or phytotoxicity) in a range of 80 to 89%; 3.5: Herbicidal effect (or phytotoxicity) in a range of 70 to 79%; 3: Herbicidal effect (or phytotoxicity) in a range of 60 to 69%; 2.5: Herbicidal effect (or phytotoxicity) in a range of 50 to 59%; 2: Herbicidal effect (or phytotoxicity) in a range of 40 to 49%; 1.5: Herbicidal effect (or phytotoxicity) in a range of 30 to 39%; 1: Herbicidal effect (or phytotoxicity) in a range of 20 to 29%; 0.5: Herbicidal effect (or phytotoxicity) in a range of 1 to 19%; 0: No herbicidal effect (or no phytotoxicity). As to conditions: evaluated twenty days after application.
Text: as §1

The next series deals with cotton. The series is described as above. As to conditions: evaluated twenty days after application. Format: in vivo. Also noted: key: 5: Withered; 4.5: Herbicidal effect (or phytotoxicity) in a range of 90 to 99%; 4: Herbicidal effect (or phytotoxicity) in a range of 80 to 89%; 3.5: Herbicidal effect (or phytotoxicity) in a range of 70 to 79%; 3: Herbicidal effect (or phytotoxicity) in a range of 60 to 69%; 2.5: Herbicidal effect (or phytotoxicity) in a range of 50 to 59%; 2: Herbicidal effect (or phytotoxicity) in a range of 40 to 49%; 1.5: Herbicidal effect (or phytotoxicity) in a range of 30 to 39%; 1: Herbicidal effect (or phytotoxicity) in a range of 20 to 29%; 0.5: Herbicidal effect (or phytotoxicity) in a range of 1 to 19%; 0: No herbicidal effect (or no phytotoxicity).
Text: as §1

For another series, the system named is rice. Described as above. Particulars: evaluated twenty days after application. Also noted: key: 5: Withered; 4.5: Herbicidal effect (or phytotoxicity) in a range of 90 to 99%; 4: Herbicidal effect (or phytotoxicity) in a range of 80 to 89%; 3.5: Herbicidal effect (or phytotoxicity) in a range of 70 to 79%; 3: Herbicidal effect (or phytotoxicity) in a range of 60 to 69%; 2.5: Herbicidal effect (or phytotoxicity) in a range of 50 to 59%; 2: Herbicidal effect (or phytotoxicity) in a range of 40 to 49%; 1.5: Herbicidal effect (or phytotoxicity) in a range of 30 to 39%; 1: Herbicidal effect (or phytotoxicity) in a range of 20 to 29%; 0.5: Herbicidal effect (or phytotoxicity) in a range of 1 to 19%; 0: No herbicidal effect (or no phytotoxicity). Format: in vivo.
Text: as §1

Another series concerns barnyardgrass. Nature of the series: Test Example 2: herbicidal test for selectivity between rice and barnyardgrass (herbicidal effects). Particulars: barnyardgrass of 2-leaf stage, thirty days after application. In kind it is in vivo, Echinochloa crus-galli L. On the procedure: (§2) Into each 1/5000 are Wager pot, paddy soil was filled and puddled, then seeds of barnyardgrass were sown and grown until they reached 2-leaf stage. The barnyardgrass of 2-leaf stage was thinned out to adjust the number of barnyardgrass to fifteen per pot, and rice seedlings of 2-leaf stage were transplanted in the same pot. […] Thereafter, they were grown in a green house, and thirty days after the application, the herbicidal effects and phytotoxicity were evaluated in accordance with the standards as identified in Table 5.

Another series deals with Paddy rice. Nature of the series: Test Example 2: herbicidal test for selectivity between rice and barnyardgrass (phytotoxicity). Format: in vivo. As to conditions: transplanted rice seedlings of 2-leaf stage, thirty days after application. On the procedure:
as §2

The test system of a further series is green foxtail. Description: Test Example 3: herbicidal test by upland soil treatment. In kind it is in vivo, Setaria viridis L. Also noted: key: 5: Withered; 4.5: Herbicidal effect (or phytotoxicity) in a range of 90 to 99%; 4: Herbicidal effect (or phytotoxicity) in a range of 80 to 89%; 3.5: Herbicidal effect (or phytotoxicity) in a range of 70 to 79%; 3: Herbicidal effect (or phytotoxicity) in a range of 60 to 69%; 2.5: Herbicidal effect (or phytotoxicity) in a range of 50 to 59%; 2: Herbicidal effect (or phytotoxicity) in a range of 40 to 49%; 1.5: Herbicidal effect (or phytotoxicity) in a range of 30 to 39%; 1: Herbicidal effect (or phytotoxicity) in a range of 20 to 29%; 0.5: Herbicidal effect (or phytotoxicity) in a range of 1 to 19%; 0: No herbicidal effect (or no phytotoxicity). Particulars: evaluated twenty days after application.
Text: as §1

`COCCNC(=O)NOc1cc(Cl)ccc1Cl` [Compound No. 243]: the “Herbicidal effects Crab-grass” value in the series with crabgrass (Dose 1 kg/HA) and in the series on crabgrass (Dose 4 kg/HA) was 5 throughout.
In the case of `CN(C)C(=O)NOc1cc(Cl)ccc1Cl` [Compound No. 1, 3-(2,5-Dichlorophenoxy)-1,1-dimethyl urea], the “Phytotoxicity Wheat” value in the series with wheat (Dose 1 kg/HA) and with wheat (Dose 4 kg/HA) was 0 throughout. Moreover, the “Phytotoxicity Cotton” value with cotton (Dose 1 kg/HA) and in the series with cotton (Dose 4 kg/HA) was 0 in each case. Besides, the “Phytotoxicity Rice” value in the series on rice (Dose 1 kg/HA) and in the series with rice (Dose 4 kg/HA) was 0 each time. Further, the “Herbicidal effects Barnyard grass” value in the series on barnyardgrass (Dose 0.25 kg/Ha), in the series on barnyardgrass (Dose 0.5 kg/Ha) and in the series with barnyardgrass (Dose 1 kg/Ha) was 5 throughout. The “Phytotoxicity Paddy rice” value with Paddy rice (Dose 0.25 kg/Ha) is 0; in the series with Paddy rice (Dose 0.5 kg/Ha), 0; in the series with Paddy rice (Dose 1 kg/Ha), 1 (Herbicidal effect (or phytotoxicity) in a range of 20 to 29%). The “Herbicidal effects Green foxtail” value in the series with green foxtail (Dose 1 kg/HA) and in the series on green foxtail (Dose 4 kg/HA) was 5 in each case. Also, the “Herbicidal effects Crab-grass” value with crabgrass (Dose 1 kg/HA) and in the series on crabgrass (Dose 4 kg/HA) was 5 in each case.
Consider `CC(C)N(C)C(=O)NOc1cc(Cl)cc(Cl)c1` [Compound No. 186, 3-(3,5-Dichlorophenoxy)-1-isopropyl-1-methyl urea trichloroacetate], for which the “Herbicidal effects Barnyard grass” value in the series with barnyardgrass (Dose 0.25 kg/Ha) and in the series with barnyardgrass (Dose 0.5 kg/Ha) was 5 each time. Also, the entries for the “Phytotoxicity Paddy rice” value with Paddy rice (Dose 0.25 kg/Ha) and in the series with Paddy rice (Dose 0.5 kg/Ha) were 0 and 1 (Herbicidal effect (or phytotoxicity) in a range of 20 to 29%), respectively. In addition, the “Herbicidal effects Crab-grass” value with crabgrass (Dose 1 kg/HA) and in the series on crabgrass (Dose 4 kg/HA) was 5 in each case.
Take `CON(C)C(=O)NOc1cc(Cl)ccc1Cl` [Compound No. 242, 3-(2,5-Dichlorophenoxy)-1-methoxy-1-methyl urea]: the “Herbicidal effects Crab-grass” value in the series on crabgrass (Dose 1 kg/HA) and in the series with crabgrass (Dose 4 kg/HA) was 5 throughout.
